Holding throughout (assay type): functional, organism-based
For assay [1], the system named is Leishmania donovani. In words: Antileishmanial activity against axenic amastigote stage of Leishmania donovani assessed as growth inhibition after 72 hrs by Alamar Blue assay.
The next assay has as its system Trypanosoma brucei. In words: Antitrypanosomal activity against trypamastigote stage of Trypanosoma brucei assessed as growth inhibition after 72 hrs by Alamar Blue assay.
Assay [2] concerns Leishmania donovani. Briefly: Antileishmanial activity against promastigote stage of Leishmania donovani assessed as growth inhibition at 0.0128 to 40 ug/ml after 72 hrs by Alamar Blue assay.

These results are taken from ChEMBL document CHEMBL3632568, “Synthesis and biological evaluation of polyalthic acid derivatives for the treatment of neglected diseases” (Bioorg Med Chem Lett, 2015).

Values after ≈ are worked out from the molar mass of the structure shown. Active and inactive are the calls of the source. No cut-off for these calls is given here. A value given as a limit tells only on which side of the number the result lay.

As usually defined, the IC50 is the concentration needed to halve the response being measured. In general, IC90 refers to the point of the concentration-response curve where the effect stands at 90%.

In the case of `C=C1CC[C@H]2[C@@](C)(CCC[C@]2(C)C(=O)N(CC)CC)[C@@H]1CCc1ccoc1`, in the assay on Leishmania donovani [1], the IC50 is 5.12 µg/mL (≈ 13.8 µM) and the IC90 worked out at 8.75 µg/mL (≈ 23.5 µM). In the assay on Trypanosoma brucei, the IC50 is 5 µg/mL (≈ 13.5 µM) and the concentration for an effect of 90% (IC90) came to 8.82 µg/mL (≈ 23.7 µM). In addition, the inhibition entry in the assay on Leishmania donovani [2] was “inactive”.

Regarding `C=C1CC[C@H]2[C@@](C)(CCC[C@]2(C)C(=O)NCC2CCCCC2)[C@@H]1CCc1ccoc1`, in the assay with Leishmania donovani [1], the concentration for half-maximal inhibition (IC50) stood at 3.84 µg/mL (≈ 9.33 µM) and the IC90 is 7.75 µg/mL (≈ 18.8 µM). For the same compound, in the assay on Trypanosoma brucei, the IC50 amounted to 5.75 µg/mL (≈ 14 µM) and the IC90 stood at 8.52 µg/mL (≈ 20.7 µM). For the same compound, the inhibition entry in the assay on Leishmania donovani [2] was “inactive”.

For `C=C1CC[C@H]2[C@@](C)(CCC[C@]2(C)C(=O)NC2CC2)[C@@H]1CCc1ccoc1`, in the assay on Leishmania donovani [1], the concentration for half-maximal inhibition (IC50) came out at 8.21 µg/mL (≈ 23.1 µM) and the IC90 is > 10 µg/mL. Further, in the assay on Trypanosoma brucei, the 50% inhibitory concentration (IC50) was determined as 5.62 µg/mL (≈ 15.8 µM) and the concentration for an effect of 90% (IC90) was 8.96 µg/mL (≈ 25.2 µM). Further, the inhibition result in the assay with Leishmania donovani [2] is “inactive”.

Regarding `C=C1CC[C@H]2[C@@](C)(CCC[C@]2(C)C(=O)NC2CCCCC2)[C@@H]1CCc1ccoc1`, the results for the IC50 in the assay on Leishmania donovani [1] and in the assay with Trypanosoma brucei were 4.23 µg/mL (≈ 10.6 µM) and 3.58 µg/mL (≈ 9 µM), respectively. The IC90 was determined as 8.19 µg/mL (≈ 20.6 µM) in the assay on Leishmania donovani [1] and 8.1 µg/mL (≈ 20.4 µM) in the assay on Trypanosoma brucei. Besides, the inhibition result in the assay on Leishmania donovani [2] was “inactive”.

In the case of `C=C1CC[C@H]2[C@@](C)(CCC[C@]2(C)C(=O)NCCN(C)C)[C@@H]1CCc1ccoc1`, in the assay on Leishmania donovani [1], the half-inhibitory concentration (IC50) is > 10 µg/mL and the IC90 is > 10 µg/mL. Further, in the assay with Trypanosoma brucei, the concentration for half-maximal inhibition (IC50) is > 10 µg/mL and the IC90 was > 10 µg/mL. For the same compound, the inhibition entry with Leishmania donovani [2] was “inactive”.

As for `C=C1CC[C@H]2[C@@](C)(CCC[C@]2(C)C(=O)N2CCOCC2)[C@@H]1CCc1ccoc1`, in the assay on Leishmania donovani [1], the IC50 was determined as 9.9 µg/mL (≈ 25.7 µM) and the IC90 is > 10 µg/mL. For the same compound, in the assay with Trypanosoma brucei, the concentration for half-maximal inhibition (IC50) was 4.62 µg/mL (≈ 12 µM) and the IC90 was determined as 8.3 µg/mL (≈ 21.5 µM). Further, in the assay on Leishmania donovani [2], the inhibition result was “inactive”.

As for `C=C1CC[C@H]2[C@@](C)(CCC[C@]2(C)C(=O)NC2CCOCC2)[C@@H]1CCc1ccoc1`, the half-maximal inhibitory concentration (IC50) in the assay with Leishmania donovani [1] was > 10 µg/mL; in the assay on Trypanosoma brucei it was 9.88 µg/mL (≈ 24.7 µM). Further, the 90% effect concentration (IC90) in the assay on Leishmania donovani [1] and in the assay on Trypanosoma brucei was > 10 µg/mL in each case. Further, the inhibition result in the assay on Leishmania donovani [2] is “inactive”.

In the case of `COCCNC(=O)[C@@]1(C)CCC[C@@]2(C)[C@H](CCc3ccoc3)C(O)(CO)CC[C@@H]21` (some centres not stated), in the assay on Leishmania donovani [1], the IC50 is > 10 µg/mL and the IC90 is > 10 µg/mL. For the same compound, in the assay on Trypanosoma brucei, the IC50 is 7.68 µg/mL (≈ 18.8 µM) and the concentration for an effect of 90% (IC90) is > 10 µg/mL. Further, the inhibition result in the assay on Leishmania donovani [2] is “inactive”.

On to `C=C1CC[C@H]2[C@@](C)(CCC[C@]2(C)C(=O)O)[C@@H]1CCc1ccoc1`, for which, in the assay on Leishmania donovani [1], the 50% inhibitory concentration (IC50) amounted to 8.68 µg/mL (≈ 27.4 µM) and the 90% effect concentration (IC90) is > 10 µg/mL. In the assay on Trypanosoma brucei, the 50% inhibitory concentration (IC50) stood at 3.87 µg/mL (≈ 12.2 µM) and the 90% effect concentration (IC90) was found to be 8.12 µg/mL (≈ 25.7 µM).

On to `C[C@@]12CCC[C@](C)(C(=O)N3CCOCC3)[C@H]1CCC(O)(CO)[C@H]2CCc1ccoc1` (some centres not stated), for which the IC50 was > 10 µg/mL in the assay on Leishmania donovani [1] and 6.25 µg/mL (≈ 14.9 µM) in the assay on Trypanosoma brucei. The IC90 in the assay on Leishmania donovani [1] and in the assay with Trypanosoma brucei was > 10 µg/mL throughout. The inhibition entry with Leishmania donovani [2] is “inactive”.

Take `C=C1CC[C@H]2[C@@](C)(CCC[C@]2(C)C(=O)NCCCC)[C@@H]1CCc1ccoc1`: in the assay on Leishmania donovani [1], the IC50 is 5.93 µg/mL (≈ 16 µM) and the 90% effect concentration (IC90) is 9.02 µg/mL (≈ 24.3 µM). In the assay on Trypanosoma brucei, the concentration for half-maximal inhibition (IC50) is 6.14 µg/mL (≈ 16.5 µM) and the concentration for an effect of 90% (IC90) is 9.13 µg/mL (≈ 24.6 µM). For the same compound, in the assay on Leishmania donovani [2], the inhibition entry was “inactive”.

On to `C=C1CC[C@H]2[C@@](C)(CCC[C@]2(C)C(=O)NCCOCCO)[C@@H]1CCc1ccoc1`, for which the IC50 with Leishmania donovani [1] and with Trypanosoma brucei was > 10 µg/mL each time. For the same compound, the IC90 with Leishmania donovani [1] and in the assay with Trypanosoma brucei was > 10 µg/mL throughout. Moreover, in the assay with Leishmania donovani [2], the inhibition result was “inactive”.

Consider `N=C(N)c1ccc(OCCCCCOc2ccc(C(=N)N)cc2)cc1` [PENTAMIDINE], for which, in the assay with Leishmania donovani [1], the concentration for half-maximal inhibition (IC50) turned out to be 1.89 µg/mL (≈ 5.54 µM) and the IC90 is 5.81 µg/mL (≈ 17.1 µM). For the same compound, in the assay with Trypanosoma brucei, the IC50 worked out at 0.002 µg/mL (≈ 0.00587 µM) and the IC90 worked out at 0.003 µg/mL (≈ 0.00881 µM).

As for `C=C1CC[C@H]2[C@@](C)(CCC[C@]2(C)C(=O)NC(C)C)[C@@H]1CCc1ccoc1`, in the assay on Leishmania donovani [1], the IC50 is 7.04 µg/mL (≈ 19.7 µM) and the IC90 is > 10 µg/mL. In addition, in the assay on Trypanosoma brucei, the 50% inhibitory concentration (IC50) stood at 2.74 µg/mL (≈ 7.66 µM) and the IC90 was 4.9 µg/mL (≈ 13.7 µM). The inhibition result in the assay on Leishmania donovani [2] was “inactive”.

As to `C=C1CC[C@H]2[C@@](C)(CCC[C@]2(C)C(=O)NCCOC)[C@@H]1CCc1ccoc1`, in the assay with Leishmania donovani [1], the IC50 turned out to be 6.73 µg/mL (≈ 18 µM) and the IC90 was > 10 µg/mL. Also, in the assay with Trypanosoma brucei, the concentration for half-maximal inhibition (IC50) is 2.58 µg/mL (≈ 6.91 µM) and the IC90 was determined as 4.71 µg/mL (≈ 12.6 µM). In addition, the inhibition entry in the assay with Leishmania donovani [2] is “inactive”.

With `C=C1CC[C@H]2[C@@](C)(CCC[C@]2(C)C(=O)N2CCN(C)CC2)[C@@H]1CCc1ccoc1`, in the assay with Leishmania donovani [1], the concentration for half-maximal inhibition (IC50) is > 10 µg/mL and the IC90 was > 10 µg/mL. For the same compound, in the assay with Trypanosoma brucei, the IC50 is 6.85 µg/mL (≈ 17.2 µM) and the IC90 is > 10 µg/mL. The inhibition result with Leishmania donovani [2] is “inactive”.

For `C[C@@]12CCC[C@](C)(C(=O)NCC3CCCCC3)[C@H]1CCC(O)(CO)[C@H]2CCc1ccoc1` (some centres not stated), in the assay on Leishmania donovani [1], the 50% inhibitory concentration (IC50) is > 10 µg/mL and the 90% effect concentration (IC90) is > 10 µg/mL. In the assay on Trypanosoma brucei, the IC50 came out at 6.51 µg/mL (≈ 14.6 µM) and the IC90 amounted to 9.15 µg/mL (≈ 20.5 µM). Further, the inhibition entry in the assay on Leishmania donovani [2] is “inactive”.

Take `C[C@@H]1[C@H](O)[C@@H](C)/C=C/C=C/C=C/C=C/C=C/C=C/C=C/[C@H](O[C@@H]2O[C@H](C)[C@@H](O)[C@H](N)[C@@H]2O)C[C@@H]2O[C@](O)(C[C@@H](O)C[C@@H](O)[C@H](O)CC[C@@H](O)C[C@@H](O)CC(=O)O[C@H]1C)C[C@H](O)[C@H]2C(=O)O` [AMPHOTERICIN B]: in the assay on Leishmania donovani [1], the IC50 amounted to 0.195 µg/mL (≈ 0.211 µM) and the IC90 is 0.301 µg/mL (≈ 0.326 µM). Also, in the assay on Trypanosoma brucei, the IC50 was 4.52 µg/mL (≈ 4.89 µM) and the IC90 stood at 10.1 µg/mL (≈ 10.9 µM).
